Data: ChEMBL document CHEMBL1201862, “PubChem BioAssay data set” (2004)
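Where inhibition never reached the appropriate level, the endpoint shown equals the highest concentration tested. Otherwise, values were interpolated linearly from a five-concentration, 48-hour dose response in 96-well plates. GI50 = concentration required for 50% inhibition of growth.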 Activity calls are given as the source filed them. Cut-off read from the data, not from the text of the source: active = GI50 up to about 1.1 µM and inactive = higher.

How the values were obtained:
Assay in all cases: inhibition of tumour cell growth, NCI panel, 48 h
SK-MEL-5 = test system: SK-MEL-5
SF-268 = test system: SF-268
KM12 = test system: KM12
MDA-MB-231 = test system: MDA-MB-231
OVCAR-4 = test system: OVCAR-4
SW-620 = test system: SW-620
ACHN = test system: ACHN
HOP-62 = test system: HOP-62
A549 = test system: A549
Hs-578T = test system: Hs-578T
TK-10 = test system: TK-10
PC-3 = test system: PC-3
HOP-92 = test system: HOP-92
MDA-N = test system: MDA-N
COLO 205 = test system: COLO 205
HT-29 = test system: HT-29
MDA-MB-435 = test system: MDA-MB-435
T47D = test system: T47D
786-0 = test system: 786-0
M19-MEL = test system: M19-MEL

Structure (SMILES) | GI50 (SK-MEL-5) | GI50 (SF-268) | GI50 (KM12) | GI50 (MDA-MB-231) | GI50 (OVCAR-4) | GI50 (SW-620) | GI50 (ACHN) | GI50 (HOP-62) | GI50 (A549) | GI50 (Hs-578T) | GI50 (TK-10) | GI50 (PC-3) | GI50 (HOP-92) | GI50 (MDA-N) | GI50 (COLO 205) | GI50 (HT-29) | GI50 (MDA-MB-435) | GI50 (T47D) | GI50 (786-0) | GI50 (M19-MEL)
COc1cc(C2=N/C(=C/c3cccs3)C(=O)O2)cc(OC)c1OC | > 100 µM (inactive) | > 100 µM (inactive) | > 100 µM (inactive) | > 100 µM (inactive) | > 100 µM (inactive) | > 100 µM (inactive) | > 100 µM (inactive) | > 100 µM (inactive) | > 100 µM (inactive) | > 100 µM (inactive) | > 100 µM (inactive) | > 100 µM (inactive) | > 100 µM (inactive) | > 100 µM (inactive) | > 100 µM (inactive) | > 100 µM (inactive) | > 100 µM (inactive) | > 100 µM (inactive) | > 100 µM (inactive) | 
NC1CCC(N(CC(=O)O)CC(=O)O)C(N(CC(=O)O)CC(=O)O)C1 (stereo unspecified) | > 100 µM (inactive) | > 100 µM (inactive) | > 100 µM (inactive) | > 100 µM (inactive) | > 100 µM (inactive) | > 100 µM (inactive) | > 100 µM (inactive) | > 100 µM (inactive) | > 100 µM (inactive) | > 100 µM (inactive) | > 100 µM (inactive) | > 100 µM (inactive) | > 100 µM (inactive) | > 100 µM (inactive) | > 100 µM (inactive) | > 100 µM (inactive) | > 100 µM (inactive) | > 100 µM (inactive) | > 10 µM (inactive) | 
COc1ccc(C(=O)O[C@H]2CC[C@@]3(C)[C@@H]4CC[C@H]5[C@]6(O)C[C@H](O)[C@@]7(O)[C@@H](CN8C[C@@H](C)CC[C@H]8[C@@]7(C)O)[C@]6(O)C[C@@]53OC24O)cc1OC [VERATRIDINE] | > 100 µM (inactive) | > 100 µM (inactive) | > 100 µM (inactive) | > 100 µM (inactive) | > 100 µM (inactive) | > 100 µM (inactive) | > 100 µM (inactive) | > 100 µM (inactive) | > 100 µM (inactive) | > 100 µM (inactive) | > 100 µM (inactive) | > 100 µM (inactive) | > 100 µM (inactive) | > 100 µM (inactive) | > 100 µM (inactive) | 60.1 µM (inactive) | > 100 µM (inactive) | > 100 µM (inactive) | > 100 µM (inactive) | 
CCn1c2ccccc2c2nnc(NCCCO)nc21 | 94.4 µM (inactive) | > 100 µM (inactive) | > 100 µM (inactive) | > 100 µM (inactive) | > 100 µM (inactive) | > 100 µM (inactive) | > 100 µM (inactive) | > 100 µM (inactive) | > 100 µM (inactive) | 50.2 µM (inactive) | > 100 µM (inactive) | > 100 µM (inactive) | > 100 µM (inactive) | > 100 µM (inactive) | > 100 µM (inactive) | > 100 µM (inactive) | > 100 µM (inactive) | 82 µM (inactive) | > 100 µM (inactive) | 
COc1cc2c(cc1OC)-c1c3cc(O)ccc3nn[n+]1CC2 | > 100 µM (inactive) | > 100 µM (inactive) | > 100 µM (inactive) |  | > 100 µM (inactive) | > 100 µM (inactive) |  | > 100 µM (inactive) | > 100 µM (inactive) |  | > 100 µM (inactive) |  |  |  | > 100 µM (inactive) | > 100 µM (inactive) |  |  | > 100 µM (inactive) | > 100 µM (inactive)
COC(=O)NC1C(C)OC(OC2C/C=C(/C)C3C=CC4C(OC5CC(OC6CC(OC7CC(O)C(O)C(C)O7)C(OC7CC(O)C(OC)C(C)O7)C(C)O6)C(O)C(C)O5)C(C)CC(C)C4C3(C)C(=O)C3=C(O)C4(CC(C)C(CO)=CC4/C=C\2C)OC3=O)CC1(C)[N+](=O)[O-] (stereo unspecified) | 5.22 µM (inactive) | 11.6 µM (inactive) | 6.7 µM (inactive) | 12 µM (inactive) | 17.5 µM (inactive) | 5.24 µM (inactive) | 11.6 µM (inactive) | 3.38 µM (inactive) | 5.04 µM (inactive) | 6.85 µM (inactive) | 16.6 µM (inactive) | 16.3 µM (inactive) | 6.24 µM (inactive) | 14 µM (inactive) | 11.3 µM (inactive) | 7.83 µM (inactive) | 9.64 µM (inactive) | 7.78 µM (inactive) | 2.44 µM (inactive) | 
COCCN(CCNC(=O)c1cccc2c(N)c3cccc(C)c3nc12)CCOC | 0.951 µM (active) | 0.35 µM (active) | 0.83 µM (active) | 0.24 µM (active) | 0.589 µM (active) | 0.491 µM (active) | 0.681 µM (active) | 0.948 µM (active) | 0.692 µM (active) | 1.87 µM (inactive) | 1.49 µM (inactive) | 1 µM (active) | 6.5 µM (inactive) | 0.875 µM (active) | 0.436 µM (active) | 0.558 µM (active) | 1.83 µM (inactive) | 4.65 µM (inactive) | 0.562 µM (active) | 
